Assay results as given in patent EP0004335A2, “Prostacyclin analogs, process and intermediates for their preparation and their use as medicines” (HOECHST AKTIENGESELLSCHAFT, priority 1978, dated 1979).

Tested on: durch Arachidonsäure in Humanblut (in vitro) induzierten Thrombocytenaggregation
Test: Inhibition of arachidonic acid-induced platelet aggregation in human blood (in vitro)
Assay type: cell-based
Conditions: Konzentration, die eine Aggregation von 50% der vorhandenen Thrombocyten verhindert
Text: Die Thrombocyten aggregationshemmende Wirkung der erfindungsgemäßen Verbindungen wurde an der durch Arachidonsäure in Humanblut (in vitro) induzierten Thrombocytenaggregation ermittelt. In der folgenden Tabelle ist die Konzentration an dem jeweiligen Prostacyclin-Derivat angegeben, die eine Aggregation von 50% der vorhandenen Thrombocyten verhindert (IC50).

Row | IC50 | SMILES
1 | 10000 nM | COC(=O)CCCC=C1CC2C(CC(O)C2C=CC(O)C(C)(C)OC2CCCCC2)O1 (stereo not drawn) [Beispiel 2 e), 16-Cyclohexyloxy-16-methyl-18,19-20-trinor-PGI -methylester]
2 | 540 nM | CCOCC(C)(C)C(O)C=CC1C(O)CC2OC(=CCCCC(=O)O)CC21 (stereo not drawn) [Beispiel 3 b), Natriumsalz des 16,16-Dimethyl-18-oxa-PGI2]
3 | 1200 nM | COCCC(C)(C)C(O)C=CC1C(O)CC2OC(=CCCCC(=O)O)CC21 (stereo not drawn) [Beispiel 3 a), Kaliumsalz des 16,16-Dimethyl-19-oxa-PGI2]
